Patent publication US20190322698A1, “WATER-SOLUBLE ALLOPR[…] USE THEREOF” (JIANGSU NHWALUOKANG PHARMACEUTICAL RESEARCH AND DEVELOPMENT …, priority 2016, published 2019)

What was measured:
[1] = Stability test of the compounds in a 5% aqueous glucose solution; format: physicochemical; details: room temperature; for Dissociation percent (%): 5% glucose solution, about 0.5 mg/ml, HPLC; for Solution: appearance of the about 0.5 mg/ml solution in 5% glucose
Experimental: Each of the compounds to be tested was weighed (1 mg), placed in a 5% glucose solution (2 ml) and formulated into a solution having a concentration of about 0.5 mg/ml. The solution stood at room temperature, and was sampled at several time points (0.5 h, 1 h, 2 h, 3 h and 5 h).

[2] = Solubility of the compounds in water (25° C.); format: physicochemical
[3] = Dissociation test of the compounds in whole blood of rats; format: in vitro ADME; details: rat whole blood, 37° C., HPLC
Experimental: Each of the compounds to be tested was weighed (1 mg), placed in water (2 ml), and formulated into a solution having a concentration of about 0.5 mg/ml as a stock solution for further use. Whole blood of rats (0.45 ml) was taken and placed in a 2 ml EP tube, which was placed in a 37° C. water bath for preheating for 20 seconds. Then the stock solution of the compound (50 μL) was added quickly. After a homogeneous mixing, the EP tube was placed in a 37° C. water bath, and time counting was initiated. Acetonitrile (1 ml) was injected immediately at predetermined time points (1 min, 3 min, 5 min, 15 min). The solution was centrifuged for 5 min (15000 rpm), filtered with a 0.22 μm filtration membrane and subjected to HPLC detection, and the results were given below: […]

Structure (SMILES)	Dissociation percent (%) ([1]; 0 h)	Dissociation percent (%) ([1]; 0.5 h)	Dissociation percent (%) ([1]; 1 h)	Dissociation percent (%) ([1]; 2 h)	Dissociation percent (%) ([1]; 3 h)	Dissociation percent (%) ([1]; 5 h)	Solution [1]	Solubility [2]	Dissociation percent (%) ([3]; 1 min)	Dissociation percent (%) ([3]; 3 min)	Dissociation percent (%) ([3]; 5 min)	Dissociation percent (%) ([3]; 15 min)
CC(=O)C1CCC2C3CCC4CC(OC(=O)C(F)C(=O)[O-])CCC4(C)C3CCC12C.[Na+] (stereo not drawn) [Compound 10]	0.02%	0.14%	0.21%	0.36%	0.51%	0.86%	Clear	>400 µg/mL	39.78%	52.28%	72.31%	100%
CC(=O)C1CCC2C3CCC4CC(OC(=O)C(F)CCOP(=O)([O-])[O-])CCC4(C)C3CCC12C.[Na+].[Na+] (stereo not drawn) [Compound 16]	0.02%	0.13%	0.21%	0.41%	0.62%	0.93%	Clear	>300 µg/mL	35.94%	47.88%	66.47%	94.56%
CC(=O)C1CCC2C3CCC4CC(OC(=O)C(F)CC(=O)[O-])CCC4(C)C3CCC12C.[Na+] (stereo not drawn) [Compound 11]	0.02%	0.11%	0.19%	0.32%	0.49%	0.79%	Clear	>400 µg/mL	40.83%	50.35%	69.32%	100%
